# Test system: 874868-142-R-J2-PDC complex spheroids, growth % test/control
# Assay: Anticancer human tumor 874868-142-R-J2-PDC patient-derived head and neck squamous carcinoma cell line growth inhibition [CLK]
# Conditions: for IC50: curve of first compound; for viability, T/C: stronger effect = lower value
# From the text: A high-throughput screen of multi-cell type tumor spheroids was designed to identify active combinations of […] and targeted small molecules. Complex spheroids include a stromal component modeled by human endothelial cells (HUVEC) and fibroblasts modeled by human mesenchymal stem cells (MSCs). The concentration ranges selected for each drug and investigational agent were based upon clinically achievable concentrations if the clinical Cmax of the agent was known.
# Compounds. The drugs and investigational agents: cirtuvivint (SM08502; NSC835563), CC-671 (NSC850746), vemurafenib (NSC761431), tapotoclax (NSC804041), sotorasib (NSC818433), adagrasib (NSC831453), MRTX-1133 (NSC836407), BAY2416964 (NSC825713), copanlisib (NSC816437), inavolisib (NSC800729), abemaciclib (NSC768073), osimertinib (NSC779217), entinostat (NSC756642), eltanexor (KPT-8602, NSC794443), venetoclax (NSC766270), ceralasertib (NSC777638), bortezomib (NSC756655), olaparib (NSC753686), talazoparib (NSC767125), alisertib (NSC759677), peposertib (NSC802822), gemcitabine (NSC613327), 5-fluorouracil (NSC19893), SN-38 (NSC673596), oxaliplatin (NSC266046), paclitaxel (NSC125973), and doxorubicin (NSC123127), were obtained from the National Cancer Institute (NCI) Developmental Therapeutics Program Chemical Repository. The FDA-approved anticancer drug set is available from the Developmental Therapeutics Program at https://dtp.cancer.gov/organization/dscb/obtaining/available plates.htm. […] The stock solutions were prepared in dimethyl sulfoxide (DMSO, Sigma-Aldrich, St. Louis, MO, cat. D2650), except for the platinum complexes which were prepared in saline (Quality Biological, Gaithersburg, MD, cat. 114-055-101), at 800-fold the tested concentration and stored at -70 degrees C prior to their use. All drugs and investigational agents were tested over a range starting from a high concentration at or near the clinical Cmax and decreasing in half-log increments. If the clinical Cmax for an agent had not been determined, the highest concentration tested was 10 microM.
# Cell Culture. All cells were maintained in an incubator at 37 degrees C and 5% CO2 with 95% humidity. The PDC lines were cultured according to standard operating procedures established by the NCI PDMR. Briefly, all PDCs were thawed and cultured in Matrigel-coated flasks prepared with a working solution of 1X Ham's F-12 nutrient mix, without supplementation (Invitrogen, Waltham, MA, cat. 11765054), 100 U/mL penicillin-streptomycin (Invitrogen, cat. 15140122), and 2.5% Matrigel (Corning Inc., Corning, NY, cat. 354248) for the first three passages. The 947758-054-R-J2-PDC line was cultured in 6B/Colon 1A media, which includes advanced DMEM/F-12 (Thermo Fisher Scientific, cat. 12634028), 10 mM HEPES (Thermo Fisher Scientific, cat. 15630080), 1X GlutaMAX supplement (Thermo Fisher Scientific, cat. 35050061), 0.1 mg/mL primocin (InvivoGen, cat. ant-pm-2), 10% defined fetal bovine serum, heat inactivated (HyClone Laboratories Inc., cat. SH30070.03HI), 1.25 mM N-Acetyl-L-cysteine (Sigma-Aldrich, cat. A9165), 10 mM nicotinamide (Sigma-Aldrich, cat. N0636), 1X B-27 supplement (Thermo Fisher Scientific, cat. 17504044), 1X N-2 supplement (Thermo Fisher Scientific, cat. 17502048), and 10 microM Y-27632 dihydrochloride (Tocris Bioscience, cat. 1254). The 876862-298-R-J1-PDC was cultured in 6E media, which includes all 6B/Colon 1A media components plus 50% L-WRN conditioned media (ATCC, cat. CRL-3276), 50 ng/mL recombinant human EGF recombinant protein (hEGF; Thermo Fisher Scientific, cat. PHG0311), 10 ng/mL recombinant human fibroblast growth factor 10 (hGFG-10; PeproTech, cat. 100-26), 1 ng/mL recombinant human fibroblast growth factor 2 (hFGF-2; PeproTech, cat. 100-18B), and 1 µM prostaglandin E2 (PGE2; Tocris, cat. 2296). The 227483-062-R1-J1-PDC line was cultured in Panc media, containing all 6E components except hFGF-2, with the addition of 500 nM SB-431542 (Selleckchem, cat. S1067) and 10 nM gastrin (Tocris, cat. 3006). […]
# [1] = second compound 0.0316 µM, first compound 0.0316 µM
# [2] = second compound 0.0316 µM, first compound 0.1 µM
# [3] = second compound 0.0316 µM, first compound 0.316 µM
# [4] = second compound 0.0316 µM, first compound 1 µM
# [5] = second compound 0.1 µM, first compound 0.0316 µM
# [6] = second compound 0.1 µM, first compound 0.1 µM
# [7] = second compound 0.1 µM, first compound 0.316 µM
# [8] = second compound 0.1 µM, first compound 1 µM
# [9] = second compound 0.316 µM, first compound 0.0316 µM
# [10] = second compound 0.316 µM, first compound 0.1 µM
# [11] = second compound 0.316 µM, first compound 0.316 µM
# [12] = second compound 0.316 µM, first compound 1 µM
# [13] = second compound 1 µM, first compound 0.0316 µM
# [14] = second compound 1 µM, first compound 0.1 µM
# [15] = second compound 1 µM, first compound 0.316 µM
# [16] = second compound 1 µM, first compound 1 µM
# [17] = second compound 3.16 µM, first compound 0.0316 µM
# [18] = second compound 3.16 µM, first compound 0.1 µM
# [19] = second compound 3.16 µM, first compound 0.316 µM
# [20] = second compound 3.16 µM, first compound 1 µM
# [21] = second compound 10 µM, first compound 0.0316 µM
# [22] = second compound 10 µM, first compound 0.1 µM
# [23] = second compound 10 µM, first compound 0.316 µM
# [24] = second compound 10 µM, first compound 1 µM
# [25] = second compound 0.0316 µM, first compound 0.00316 µM
# [26] = second compound 0.0316 µM, first compound 0.01 µM
# [27] = second compound 0.1 µM, first compound 0.00316 µM
# [28] = second compound 0.1 µM, first compound 0.01 µM
# [29] = second compound 0.316 µM, first compound 0.00316 µM
# [30] = second compound 0.316 µM, first compound 0.01 µM
# [31] = second compound 1 µM, first compound 0.00316 µM
# [32] = second compound 1 µM, first compound 0.01 µM
# [33] = second compound 3.16 µM, first compound 0.00316 µM
# [34] = second compound 3.16 µM, first compound 0.01 µM
# [35] = second compound 10 µM, first compound 0.00316 µM
# [36] = second compound 10 µM, first compound 0.01 µM
# 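Note: spheroids exposed to the compounds for 7 days.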
smiles,measurement,setting,value
COc1ccc([C@@H](O)c2cc(-c3ncnc4cc(N5CCOCC5)ccc34)c(F)cc2Cl)nn1 + CN1CCN(c2cc(C(=O)Nc3cc4cc(-c5cnn(C)c5)ccc4cn3)ccn2)CC1,IC50,second compound 0.0316 µM,1990 nM
same,IC50,second compound 0.1 µM,899 nM
same,IC50,second compound 0.316 µM,< 31.6 nM
same,IC50,second compound 1 µM,< 31.6 nM
same,IC50,second compound 3.16 µM,< 31.6 nM
same,IC50,second compound 10 µM,< 31.6 nM
same,"viability, T/C",[1],83.6%
same,"viability, T/C",[2],77.9%
same,"viability, T/C",[3],74.9%
same,"viability, T/C",[4],70.4%
same,"viability, T/C","second compound 0.0316 µM, first compound 3.16 µM",36.1%
same,"viability, T/C","second compound 0.0316 µM, first compound 10 µM",32.6%
same,"viability, T/C",[5],71%
same,"viability, T/C",[6],62.7%
same,"viability, T/C",[7],64.5%
same,"viability, T/C",[8],48.8%
same,"viability, T/C","second compound 0.1 µM, first compound 3.16 µM",30.9%
same,"viability, T/C","second compound 0.1 µM, first compound 10 µM",30.3%
same,"viability, T/C",[9],17.3%
same,"viability, T/C",[10],12.2%
same,"viability, T/C",[11],13.4%
same,"viability, T/C",[12],9.3%
same,"viability, T/C","second compound 0.316 µM, first compound 3.16 µM",14.9%
same,"viability, T/C","second compound 0.316 µM, first compound 10 µM",13.4%
same,"viability, T/C",[13],0.18%
same,"viability, T/C",[14],0.23%
same,"viability, T/C",[15],2.66%
same,"viability, T/C",[16],0.22%
same,"viability, T/C","second compound 1 µM, first compound 3.16 µM",0.24%
same,"viability, T/C","second compound 1 µM, first compound 10 µM",0.33%
same,"viability, T/C",[17],0.22%
same,"viability, T/C",[18],0.16%
same,"viability, T/C",[19],3.99%
same,"viability, T/C",[20],0.25%
same,"viability, T/C","second compound 3.16 µM, first compound 3.16 µM",0.23%
same,"viability, T/C","second compound 3.16 µM, first compound 10 µM",0.35%
same,"viability, T/C",[21],0.06%
same,"viability, T/C",[22],0.15%
same,"viability, T/C",[23],2.92%
same,"viability, T/C",[24],0.15%
same,"viability, T/C","second compound 10 µM, first compound 3.16 µM",0.22%
same,"viability, T/C","second compound 10 µM, first compound 10 µM",3.6%
CCc1c2c(nc3ccc(O)cc13)-c1cc3c(c(=O)n1C2)COC(=O)[C@]3(O)CC + CN1CCN(c2cc(C(=O)Nc3cc4cc(-c5cnn(C)c5)ccc4cn3)ccn2)CC1,IC50,second compound 0.0316 µM,< 3.16 nM
same,IC50,second compound 0.1 µM,< 3.16 nM
same,IC50,second compound 0.316 µM,< 3.16 nM
same,IC50,second compound 1 µM,< 3.16 nM
same,IC50,second compound 3.16 µM,< 3.16 nM
same,IC50,second compound 10 µM,< 3.16 nM
same,"viability, T/C",[25],40.3%
same,"viability, T/C",[26],37.1%
same,"viability, T/C",[1],26.8%
same,"viability, T/C",[2],16.6%
same,"viability, T/C",[3],7.13%
same,"viability, T/C",[4],1.61%
same,"viability, T/C",[27],31.4%
same,"viability, T/C",[28],24.2%
same,"viability, T/C",[5],11.6%
same,"viability, T/C",[6],8.69%
same,"viability, T/C",[7],2.29%
same,"viability, T/C",[8],0.34%
same,"viability, T/C",[29],12.2%
same,"viability, T/C",[30],7.89%
same,"viability, T/C",[9],5.11%
same,"viability, T/C",[10],1.25%
same,"viability, T/C",[11],0.46%
same,"viability, T/C",[12],0.22%
same,"viability, T/C",[31],0.28%
same,"viability, T/C",[32],0.16%
same,"viability, T/C",[13],0.25%
same,"viability, T/C",[14],0.19%
same,"viability, T/C",[15],0.39%
same,"viability, T/C",[16],0.11%
same,"viability, T/C",[33],0.18%
same,"viability, T/C",[34],0.16%
same,"viability, T/C",[17],0.32%
same,"viability, T/C",[18],0.27%
same,"viability, T/C",[19],0.19%
same,"viability, T/C",[20],0.11%
same,"viability, T/C",[35],0.07%
same,"viability, T/C",[36],3.98%
same,"viability, T/C",[21],0.4%
same,"viability, T/C",[22],0.15%
same,"viability, T/C",[23],0.19%
same,"viability, T/C",[24],0.19%
COc1c(OCCCN2CCOCC2)ccc2c3n(c(=NC(=O)c4cnc(N)nc4)nc12)CCN3 + CN1CCN(c2cc(C(=O)Nc3cc4cc(-c5cnn(C)c5)ccc4cn3)ccn2)CC1,IC50,second compound 0.0316 µM,7.48 nM
same,IC50,second compound 0.1 µM,5.7 nM
same,IC50,second compound 0.316 µM,< 3.16 nM
same,IC50,second compound 1 µM,< 3.16 nM
same,IC50,second compound 3.16 µM,< 3.16 nM
same,IC50,second compound 10 µM,< 3.16 nM
same,"viability, T/C",[25],66.7%
same,"viability, T/C",[26],44.8%
same,"viability, T/C",[1],21.2%
same,"viability, T/C",[2],11.6%
same,"viability, T/C",[3],5.06%
same,"viability, T/C",[4],3.88%
same,"viability, T/C",[27],57.3%
same,"viability, T/C",[28],42.7%
same,"viability, T/C",[5],23.6%
same,"viability, T/C",[6],9.84%
same,"viability, T/C",[7],5.07%
same,"viability, T/C",[8],5.77%
same,"viability, T/C",[29],19.1%
same,"viability, T/C",[30],18.6%
same,"viability, T/C",[9],10.7%
same,"viability, T/C",[10],4.09%
same,"viability, T/C",[11],3.08%
same,"viability, T/C",[12],1.68%
same,"viability, T/C",[31],0.4%
same,"viability, T/C",[32],0.24%
same,"viability, T/C",[13],0.24%
same,"viability, T/C",[14],0.07%
same,"viability, T/C",[15],0.34%
same,"viability, T/C",[16],0.22%
same,"viability, T/C",[33],0.17%
same,"viability, T/C",[34],0.16%
same,"viability, T/C",[17],0.17%
same,"viability, T/C",[18],0.36%
same,"viability, T/C",[19],0.16%
same,"viability, T/C",[20],0.19%
same,"viability, T/C",[35],0.07%
same,"viability, T/C",[36],0.15%
same,"viability, T/C",[21],1.27%
same,"viability, T/C",[22],0.4%
same,"viability, T/C",[23],0.14%
same,"viability, T/C",[24],0.18%

# — PubChem BioAssay AID2060601 (Molecular Pharmacology Branch, DTP, NCI, 2025)
